# Measured values taken from PubChem BioAssay (NCI).
#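 Tested at 5 concentrations; 48 h exposure; 96-well plates; endpoints linearly interpolated, else capped at highest concentration. GI50 is the concentration that inhibits growth by half. The concentration for full growth arrest is given as TGI.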
# Legend:
# Test in all cases: inhibition of tumour cell growth, NCI panel, 48 h
# NCI-H522 lung = test system: NCI-H522 lung
# SN12C renal = test system: SN12C renal
# U251 CNS = test system: U251 CNS
# HL-60(TB) leukemia = test system: HL-60(TB) leukemia
# MDA-MB-435 = test system: MDA-MB-435
# NCI-H460 lung = test system: NCI-H460 lung
# OVCAR-4 ovarian = test system: OVCAR-4 ovarian
# MOLT-4 leukemia = test system: MOLT-4 leukemia
# PC-3 prostate = test system: PC-3 prostate
# CCRF-CEM leukemia = test system: CCRF-CEM leukemia
Structure (SMILES),GI50 (NCI-H522 lung) [µM],TGI (NCI-H522 lung) [µM],GI50 (SN12C renal) [µM],TGI (SN12C renal) [µM],GI50 (U251 CNS) [µM],TGI (U251 CNS) [µM],GI50 (HL-60(TB) leukemia) [µM],TGI (HL-60(TB) leukemia) [µM],GI50 (MDA-MB-435) [µM],TGI (MDA-MB-435) [µM],GI50 (NCI-H460 lung) [µM],TGI (NCI-H460 lung) [µM],GI50 (OVCAR-4 ovarian) [µM],TGI (OVCAR-4 ovarian) [µM],GI50 (MOLT-4 leukemia) [µM],TGI (MOLT-4 leukemia) [µM],GI50 (PC-3 prostate) [µM],TGI (PC-3 prostate) [µM],GI50 (CCRF-CEM leukemia) [µM],TGI (CCRF-CEM leukemia) [µM]
CN(C)C/C=C/C(=O)Nc1cc2c(Nc3ccc(F)c(Cl)c3F)ncnc2cc1OCCOC(F)F,< 0.0152,1.35,0.136,4.52,1.99,9.23,1.74,6.96,1.17,6.63,2.34,10.5,1.18,10.7,1.11,5.43,1.9,9.09,2.47,13.3
Cc1cc(O)c(C2=NN(c3ccc(S(N)(=O)=O)cc3)C(c3ccc(N(C)C)cc3)C2)c(C)c1Cl (stereo not given),18.6,48.4,9.62,25,11.8,26.9,20.3,50,13.4,31,12.2,27.4,13.3,27.6,12.7,43.2,9.21,23.9,15.1,43.6
CN1CCN(c2cc(C(=O)Nc3cc4cc(-c5cnn(C)c5)ccc4cn3)ccn2)CC1,0.0472,0.327,0.123,12.7,0.188,13.2,0.119,7.91,0.169,13.2,0.121,11.7,0.151,1.46,0.221,18,0.314,31.4,0.155,> 39.2
COC1=CC23CCCN2CCc2cc4c(cc2C3C1O)OCO4 (stereo not given),,> 100,,> 100,,> 100,,83.8,,> 100,,> 100,,> 100,,> 100,,> 100,,> 100
CC(=O)N1c2ccccc2NC2=C(C(=O)N(Cc3ccccc3)C2(C)C)C1c1ccco1 (stereo not given),0.871,> 25,0.589,> 25,0.665,> 25,0.103,0.651,0.277,0.859,0.145,> 21.2,> 6.37,> 25,0.786,> 25,0.687,> 25,0.258,> 25
Cc1nc(CN2CCCCC2)c(O)c(=O)[nH]1,,> 100,,> 100,,> 100,,> 100,,> 100,,> 100,,> 100,,> 100,,> 100,,> 100
CCn1cc(-c2ccnc3[nH]ccc23)c(-c2cccc(NC(=O)Nc3ccc(OCc4ccccc4)cc3)c2)n1,2.98,> 25,> 25,> 25,4.75,> 25,4.23,17.2,11,> 25,7.45,> 25,> 23.4,> 25,6.85,> 25,10.6,> 25,11.5,> 25
CN(C)c1ncc(-c2ccc(C(F)(F)F)cc2)c(NC2CCCCCC2)n1,11.2,30.2,17.3,62.2,14.7,30,15,34,24.8,> 100,16.2,35.9,12.9,56.6,14.8,34.7,20.2,87.1,16.4,35.8
CC(=O)O[C@@H]1[C@@H](O)C2=C3[C@]4(C)[C@@H]1C(C)(C)C(=O)C[C@@H]4[C@]3(O)[C@H](OC(C)=O)[C@@]1(C[C@@H]1C)C2=O,,19.2,,37.1,,40.6,,49.1,,37.8,,40.1,,43.9,,72.4,,48.9,,34.1
O=C(O)c1cc2ccccc2oc1=O,,> 100,,> 100,,> 100,,> 100,,> 100,,> 100,,> 100,,> 100,,> 100,,> 100
C[C@@H]1Cc2c([nH]c3ccccc23)[C@@H](c2c(F)cc(NC3CN(CCCF)C3)cc2F)N1CC(F)(F)CO,4.16,16.7,9.69,23.1,6.1,21.2,4.9,22.5,3.89,15.1,5.19,19.2,9.86,21.9,3.91,20.6,2.35,9.67,3.44,15.3
